Experimental data published in patent US20040198673A1, “Composition for epigallocatechin gallate” (priority 2001, published 2004).

Assay: Agway test of powder flowability (glass funnel, 11-mm opening)
Type: physicochemical
Details: 100 g, 11-mm funnel opening
Description: Granulated EGCG was compared with EGCG powder (the starting material for granulation) for powder flowability using the Agway test. In that test, flowability is determined by placing 100 gram of the granules in a glass funnel with a 11-mm opening, which is sealed temporarily. The measurement is started by releasing the seal. Flowability is determined as the time for the entire powder to flow through the funnel in seconds per 100 g of granule.

(−)-epigallocatechin gallate [EGCG powder]
Powder flowability (result in words): did not flow
